# In patent US20250032581A1, “COMPOSITIONS AND ARTICLES COMPRISING AN ADNF POLYPEPTIDE” (RAMOT AT TEL-AVIV UNIVERSITY LTD., priority 2021, published 2025):
# Test system: Tau-MT interaction in differentiated N1E-115 cells
# Assay: Fluorescence recovery after photobleaching (FRAP) of mCherry-Tau
# Assay type: cell-based, mouse
# Conditions: for Tau-MT interaction (immobile mCherry-Tau fraction): 4 hrs
# Protocol: Cell culture—Mouse neuroblastoma NIE-115 cells were maintained in Dulbecco's modified Eagle's medium, 10% fetal bovine serum, 2 mM glutamine and 100 U ml-1 penicillin, 100 mg ml-1 streptomycin (Biological Industries, Beit Haemek, Israel). The cells were incubated in 9 5% air/5% CO2 in a humidified incubator at 37° C.
# Cell differentiation and co-transfection of overexpression plasmids—Cultured NIE-115 cells were plated on 35 mm dishes (81156, 60 p-Dish, Ibidi, Martinsried, Germany) at a concentration of 1.25×10^4 cells per dish and then were differentiated with reduced fetal bovine serum (2%) and DMSO (1.25%) containing medium for 5 days before transfection. 48 hrs before experiments N1E-115 cells were co-transfected with 1 μg EB3-RFP or mCherry-Tau (3R) plasmid with or without 2 μg of plasmids, coding to GFP conjugated to full-length human ADNP, or ADNP carried mutations. 1:3 ratios between total amount of transfected DNA and transfection reagent were used according to manufacture guidance (Lipofectamine2000, Thermo Fisher Scientific, Waltham, MA, USA) in all subsequent experiments.
# Fluorescence recovery after photobleaching (FRAP)—Differentiated NIE-115 cells were transfected with mCherry-Tau with or without GFP-conjugated to full-length ADNP or mutated ADNP, and imaged 48 hrs after transfection. An ROI for photobleaching was drowned in the proximal cell branches. mCherry-Tau was bleached with a […], and fluorescence recovery was collected within wavelengths of 610-650 nm. 80 images were taken every 0.74 sec immediately after bleaching. After FRAP imaging all samples were also treated with NAP in final concentrations of 10^−12M, and after 4 hrs time-lapse imaging was done again under the same conditions. FRAP imaging for assessment difference between NAP and SKIP (SEQ ID NO: 21) activity was performed after an hour of ZnCl2 treatment (400 μM final concentration; Sigma, Rehovot, Israel) with or without NAP/SKIP (10^−12M final concentration). Fluorescence signals were quantified with Fiji, obtained data were normalized with easyFRAP [82, 83] and FRAP recovery curves were fitted by a one-phase exponential association function by GraphPad Prism6 (GraphPad Software, Inc., La Jolla, CA, USA) while samples with R^2<0.9 were excluded.
# Next, the effect of full-length/truncated ADNP forms with or without NAP treatment on Tau-MT interaction was examined by fluorescence recovery after photobleaching (FRAP) (FIGS. 8A-C). FRAP was performed with mCherry-tagged Tau protein (FIG. 8A). […] Therefore, the immobile mCherry-Tau fraction reflects the rate of Tau association with MTs.
smiles,measurement,setting,value
"CC[C@H](C)[C@H](NC(=O)[C@H](CO)NC(=O)[C@@H](NC(=O)[C@@H]1CCCN1C(=O)[C@H](C)NC(=O)[C@@H](N)CC(N)=O)C(C)C)C(=O)N1CCC[C@H]1C(=O)N[C@@H](CCC(N)=O)C(=O)O [NAP, NAPVSIPQ]",Tau-MT interaction (immobile mCherry-Tau fraction),"cells expressing ADNP p.Glu830synfs*83, NAP 10^−12M",significantly increased Tau-MT interaction
same,Tau-MT interaction (immobile mCherry-Tau fraction),"cells expressing ADNP p.Ser404*, NAP 10^−12M",significantly increased Tau-MT interaction
same,Tau immobile fraction (Tau-MT interaction) in the presence of zinc,"zinc 400 μM, 1 h, peptide 10^−12M",excessive impact of NAP on Tau-MT interaction
